# Source: patent US6967075B2 (priority 2000, dated 2005)
# Entries after “also recorded” stand apart in the source; their conditions may differ.
# Biological target: T1, HCV NS5B (Hepatitis C virus genotype 1b, UniProt P26663)
# Assay: Nucleotide incorporation assay using end-labeled primers
# Format: biochemical
# Conditions: 5 μM template, 10 μM end-labeled primer, 100 μM NTP, 30° C. for 30 min
# Protocol: Nucleotide incorporation assay using end-labeled primers. A standard nucleotide incorporation reaction was performed in a 20 μl volume, containing 50 mM HEPES (pH 7.3), 10 mM β-mecaptoethanol, 50 mM NaCl, 5 mM MgCl2, 5 μM of template RNA, 10 μM of end-labeled primer, 3 to 5 μM of polymerase protein and 100 μM of NTP substrate, as described. Single nucleotide incorporation by HCV replicase was tested using radiolabeled diguanylate (^33pGpG) as a primer and three RNA templates corresponding to SEQ ID NO: 11 [(ACC)7], SEQ ID NO: 9 [(tJCC)7], and SEQ ID NO: 10 [(GCC)7]. Reactions involved ^33pGpG primer alone and with (1) (ACC)7 RNA as the template plus either no NTP, 100 μM UTP or 100 μM ATP, (2) (UCC)7 RNA as the template plus either no NTP, 100 μM ATP or 100 μM CTP, and (3) (GCC)7 RNA as the template plus either no NTP, 100 μM CTP or 100 μM ATP. To show the efficiency of guanylate primers of different length in priming nucleotide incorporation, four template-primer pairs were tested in a standard primer-extension assay: […] (SEQ ID NO: 10)/^33pGG; […] (SEQ ID NO: 12)/^33pGGG; […],(SEQ ID NO-13)/^33pGGGG (SEQ ID NO: 32); and […] (SEQ ID NO: 7)/^33pGpqGG (SEQ ID NO: 33). Reactions were performed using 100 μM of CTP or without a nucleotide substrate.
# Reactions contained (UCC)7 alone, (UCC)7 plus 100 μM of ATP, (UCC)6AAA alone, or (UCC)6AAA plus 100 μM of ATP. In addition, RNAs of SEQ ID NOS: 11, 30 and 31 were tested for single-nucleotide incorporation with ^33pGpG as the primer.
# To show the minimum length requirement for a template RNA of the invention RNA templates of decreasing length (21 to 4-nt), e.g., SEQ ID NOS: 8 and 14-20 were tested for the ability to direct single-nucleotide incorporation using ^33pGpG as the primer. All reactions contained 100 μM of ATP and one template RNA. Multiple cycles of nucleotide incorporation were performed using a 10-mer RNA and ^33pGpG as the primer. Reactions contained either 100 μM of ATP alone, or 100 μM each of ATP and CTP, or 100 μM each of ATP, CTP and GTP. The reactions were quenched at different times from 15 to 900 seconds.
# Various dinucleotide primers for RNA synthesis and nucleotide incorporation using HCV 3′ terminal sequences as template were used. The following RNA templates were used: 5′ AAAAAACAGUCC 3′ (SEQ ID NO: 17), 5′ AAAACAGUGC 3′ (SEQ ID NO: 21), 5′ AAAAAACAGUCG 3′ (SEQ ID NO: 22), 5′ AAAAAACAGUGG 3′ (SEQ ID NO: 23), 5′ AAAAAACAGUAC 3′ (SEQ ID NO: 24), 5′ AAAAAACAGUCA 3′ (SEQ ID NO: 25), which differ by two residues at the 3′ terminal positions. Dinucleotide primers, ^33pGpG, ^33pGpC, ^33pCpG, ^33pCpC, ^33pGpU and ^33pUpG, were paired with respective templates in the absence or presence of 100 μM ATP substrate. RNA templates, 3′(+) and 3′(−), consisted of the 3′ terminal sequences of positive-strand and negative-strand HCV genome, respectively. Primers ^33pApC and ^33pGpC were used for 3′(+) and 3′(−) RNA, respectively, in the absence of nucleotide substrate and in the presence of ATP or CTP.
# Reaction mixtures were incubated at 30° C. for 30 min, followed by phenol and chloroform extraction and ethanol precipitation in the presence of glycogen carrier. Product was dissolved in a urea/TBE sample buffer (Novex, San Diego, Calif.) and separated on a 23 to 25% PAGE/6 M Urea/1× TBE gel. The gel was then covered with plastic wrap and exposed to an X-ray film.
row,Compound,nucleotide incorporation (extension of end-labeled primer)
1,"5′ ACCACCACCACCACCACCACC 3′ (ACCACCACCACCACCACCACC; RNA, backbone not given here) [(ACC)7]",single nucleotide incorporation was observed only when UTP was used
2,"5′ AUC AGG GGG CUG GC 3′ (AUCAGGGGGCUGGC; RNA, backbone not given here) [SEQ ID NO: 27, 3′ terminus of HCV negative-strand RNA genome]",single-nucleotide incorporation was detected; also recorded: higher overall activity
3,"5′ C ACCACCACCACCACCACCAC 3′ (CACCACCACCACCACCACCAC; RNA, backbone not given here) [SEQ ID NO: 31]",significant reduction in activity
4,"5′ CC ACC ACC ACC ACC ACC ACCA 3′ (CCACCACCACCACCACCACCA; RNA, backbone not given here) [SEQ ID NO: 30]",significant reduction in activity
5,"5′ GCCGCCGCCGCCGCCGCCGCC 3′ (GCCGCCGCCGCCGCCGCCGCC; RNA, backbone not given here) [(GCC)7]","only the correct nucleotide, ATP or CTP, resulted in primer extension"
6,"5′ UCCUCCUCCUCCUCCUCCUCC 3′ (UCCUCCUCCUCCUCCUCCUCC; RNA, backbone not given here) [(UCC)7]","only the correct nucleotide, ATP or CTP, resulted in primer extension"
7,"5′ UCU GCA GAU CAU GU 3′ (UCUGCAGAUCAUGU; RNA, backbone not given here) [SEQ ID NO: 26, 3′ terminus of HCV positive-strand RNA genome]",single-nucleotide incorporation was detected
8,GGG [^33pGGG],supported nucleotide incorporation with the highest efficiency
9,"GGGG (5' 33P label, further chemistry not given here) [^33pGGGG]",detrimental to the activity
10,"GGGGG (RNA, backbone not given here; further chemistry not fully specified) [^33pGGGGG]",detrimental to the activity
11,pGpC [GC],capable of priming nucleotide (AMP) incorporation
12,pGpG [GG],capable of priming nucleotide (AMP) incorporation

# Same assay, conditions: 5 μM template, 10 μM end-labeled primer, 100 μM NTP, 30° C. for 30 min; listed as 33pGG
row,Compound,nucleotide incorporation (extension of end-labeled primer)
1,pGpG [GG],supported nucleotide incorporation with the highest efficiency

# Biological target: poliovirus 3D RdRp (Poliovirus type 1, UniProt P03300)
# Sequence (P03300 1749-2209 limits assumed): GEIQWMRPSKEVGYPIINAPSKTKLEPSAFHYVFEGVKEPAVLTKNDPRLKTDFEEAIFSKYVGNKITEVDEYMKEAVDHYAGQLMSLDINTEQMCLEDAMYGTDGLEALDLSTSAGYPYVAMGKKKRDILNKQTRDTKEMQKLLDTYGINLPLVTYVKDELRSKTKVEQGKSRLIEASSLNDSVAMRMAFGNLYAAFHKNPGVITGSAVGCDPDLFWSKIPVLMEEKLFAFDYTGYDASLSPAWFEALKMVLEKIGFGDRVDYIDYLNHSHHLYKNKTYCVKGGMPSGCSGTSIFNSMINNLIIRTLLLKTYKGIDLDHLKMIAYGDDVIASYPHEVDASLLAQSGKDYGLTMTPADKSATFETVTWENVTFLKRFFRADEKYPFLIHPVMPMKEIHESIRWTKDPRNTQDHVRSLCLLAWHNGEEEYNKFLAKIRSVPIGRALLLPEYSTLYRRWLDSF
# Assay: not given
# Conditions: cited from earlier work
row,Compound,inhibition of poliovirus 3D RdRp
1,"CN1C(=O)[C@]23CC4=CC=C[C@H](O)[C@H]4N2C(=O)[C@@]1(CO)SS3 [Gliotoxin, gliotoxin]",known poliovirus 3D RdRp inhibitor

# Biological target: HCV NS5B replicase (Hepatitis C virus genotype 1b, UniProt P26663)
# Sequence (P26663 2420-3010 limits assumed): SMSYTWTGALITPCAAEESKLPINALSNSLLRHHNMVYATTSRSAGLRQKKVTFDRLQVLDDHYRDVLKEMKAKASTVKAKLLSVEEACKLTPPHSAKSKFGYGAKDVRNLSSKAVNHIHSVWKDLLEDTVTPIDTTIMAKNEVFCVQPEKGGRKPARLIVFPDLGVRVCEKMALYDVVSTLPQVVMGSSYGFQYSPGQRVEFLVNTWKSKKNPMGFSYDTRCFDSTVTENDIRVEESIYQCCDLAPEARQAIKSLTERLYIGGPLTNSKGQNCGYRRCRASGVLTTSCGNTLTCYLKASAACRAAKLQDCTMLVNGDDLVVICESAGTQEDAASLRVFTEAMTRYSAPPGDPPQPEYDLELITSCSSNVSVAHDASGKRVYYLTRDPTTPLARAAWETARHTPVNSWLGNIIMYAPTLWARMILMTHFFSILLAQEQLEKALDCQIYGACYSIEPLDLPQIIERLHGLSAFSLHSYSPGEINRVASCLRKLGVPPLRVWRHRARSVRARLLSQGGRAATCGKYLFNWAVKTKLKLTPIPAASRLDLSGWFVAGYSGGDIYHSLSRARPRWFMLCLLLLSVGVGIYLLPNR
# Assay: not given
# Conditions: cited from earlier work
row,Compound,inhibition of HCV NS5B replicase
1,"CN1C(=O)[C@]23CC4=CC=C[C@H](O)[C@H]4N2C(=O)[C@@]1(CO)SS3 [Gliotoxin, gliotoxin]",inhibits HCV NS5B replicase in a dose dependent manner

# Biological target: T1, HCV NS5B
# Assay: not given
# Format: biochemical
# Conditions: not given
# Target sequence in this assay (P26663 2420-2989 limits assumed): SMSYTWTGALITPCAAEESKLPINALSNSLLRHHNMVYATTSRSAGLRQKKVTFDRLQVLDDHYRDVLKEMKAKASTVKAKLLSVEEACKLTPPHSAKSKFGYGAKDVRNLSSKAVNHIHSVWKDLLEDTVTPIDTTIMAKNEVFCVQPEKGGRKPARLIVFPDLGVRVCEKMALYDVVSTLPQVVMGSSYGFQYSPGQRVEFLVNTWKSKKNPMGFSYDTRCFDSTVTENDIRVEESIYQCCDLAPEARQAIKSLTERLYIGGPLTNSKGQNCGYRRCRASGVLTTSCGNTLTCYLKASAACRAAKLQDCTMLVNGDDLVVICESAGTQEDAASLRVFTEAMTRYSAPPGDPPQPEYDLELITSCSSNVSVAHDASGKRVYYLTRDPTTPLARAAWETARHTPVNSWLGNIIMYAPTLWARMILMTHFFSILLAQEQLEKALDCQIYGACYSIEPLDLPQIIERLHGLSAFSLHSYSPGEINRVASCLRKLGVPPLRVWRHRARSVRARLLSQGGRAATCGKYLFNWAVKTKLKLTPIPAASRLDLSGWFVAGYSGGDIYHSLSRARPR
row,Compound,extension/utilization of end-labeled RNA
1,"5′ GCA UGG GCC C 3′ [sym/sub RNA, reference compound]",no primer extension was observed
